Earlier results in US20080139517A1, “Methods of treating age associated memory impairment (AAMI), mild cognitive impairment (MCI), and dementias with cell cycle inhibitors” (priority 2002, published 2008).

Key:
[1] = test system: ERK-1 and ERK-2 (p44 and p42 MAPK); settings: in response to hypoxia/reoxygenation injury
leukemia cells = settings: G1 phase
cdk4 = cdk4 (Homo sapiens, UniProt P11802)
moderate to severe AD = settings: in vivo
vascular dementia = settings: in vivo
human cancer cells = settings: demonstrated in non-small-cell lung cancer cells
[2] = children
PC12 cells = settings: presence of nerve growth factor

cdk4, sequence (P11802 whole entry, species assumed): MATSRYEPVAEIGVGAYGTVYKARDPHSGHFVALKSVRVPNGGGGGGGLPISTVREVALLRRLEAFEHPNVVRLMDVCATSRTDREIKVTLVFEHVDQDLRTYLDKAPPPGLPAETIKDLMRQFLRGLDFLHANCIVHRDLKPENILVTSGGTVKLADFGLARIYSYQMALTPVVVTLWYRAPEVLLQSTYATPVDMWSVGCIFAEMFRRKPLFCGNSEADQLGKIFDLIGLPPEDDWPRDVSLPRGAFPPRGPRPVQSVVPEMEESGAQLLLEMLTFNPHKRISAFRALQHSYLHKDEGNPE
cdk4, sequence (P24385 whole entry partner, species assumed): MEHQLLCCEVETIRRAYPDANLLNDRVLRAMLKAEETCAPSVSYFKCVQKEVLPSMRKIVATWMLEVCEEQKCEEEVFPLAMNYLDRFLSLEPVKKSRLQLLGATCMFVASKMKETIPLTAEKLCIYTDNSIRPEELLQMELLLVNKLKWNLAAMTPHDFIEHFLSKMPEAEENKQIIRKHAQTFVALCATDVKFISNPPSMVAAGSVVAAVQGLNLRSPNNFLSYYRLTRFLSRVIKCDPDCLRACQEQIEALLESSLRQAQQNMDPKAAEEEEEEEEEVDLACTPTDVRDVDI

## CC(=O)Oc1ccccc1C(=O)O [Aspirin, Acetylsalicylic acid]
[1]
  ERK-1 and ERK-2 (p44 and p42 MAPK) activation: inhibit

## NS(=O)(=O)c1ccc(S(=O)(=O)Nc2cccc3c(Cl)c[nH]c23)cc1 [E7070, N-(3-chloro-7-indolyl)-1,4-benzenedisulfonamide]
Leukemia cells
  cell cycle progression of leukemia cells: block

## O=C1c2ccccc2-[n+]2ccc3c([nH]c4ccccc43)c21 [Fascaplysin]
cdk4
  cdk4 inhibition: specifically inhibit

## C[C@]12N[C@H](Cc3ccccc31)c1ccccc12 [MK801]
Neuronal death
  excitotoxic neuronal death: blocks

## CC12CC3CC(C)(C1)CC(N)(C3)C2 [Memantine]
Moderate to severe AD
  treatment of moderate to severe AD: useful
Vascular dementia
  treatment of vascular dementia: useful

## Cn1cncc1[C@@](N)(c1ccc(Cl)cc1)c1ccc2c(c1)c(-c1cccc(Cl)c1)cc(=O)n2C [R115777]
p21 ras
  p21 ras activation: prevent

## NC(=O)N1CCC(CC(=O)N2CCC([C@H]3c4ncc(Br)cc4CCc4cc(Cl)cc(Br)c43)CC2)CC1 [SCH66336]
p21 ras
  p21 ras activation: prevent

## CCCC(CCC)C(=O)O [Valproate, valproic acid]
Glioma cell lines
  cell cycle arrest in glioma cell lines: induce cell cycle arrest

## C[C@@H]1C[C@H]1[C@H](C)C[C@@H](O)[C@@]1([C@H]2CC[C@H]3[C@@H]4CC[C@H]5CC(=O)CC[C@]5(C)[C@H]4C[C@@H](O)[C@]23C)CO1 [YTA0040, Aragusterol A]
Human cancer cells
  cell cycle arrest of human cancer cells: arrested human cancer cells cycle in the G1 phase

## CN1CC[C@H](c2c(O)cc(O)c3c(=O)cc(-c4ccccc4Cl)oc23)[C@H](O)C1 [flavopiridol]
Neuronal death
  excitotoxic neuronal death: blocks

## C=C(C)[C@H]1CN[C@H](C(=O)O)[C@H]1CC(=O)O [kainic acid]
Cyclin D1
  cyclin D1 expression: upregulates

## CN(Cc1cnc2nc(N)nc(N)c2n1)c1ccc(C(=O)N[C@@H](CCC(=O)O)C(=O)O)cc1 [methotrexate]
[2]
  cognitive impairment associated with treatment: learning disabilities

## CC[C@H](CO)Nc1nc(NCc2ccccc2)c2ncn(C(C)C)c2n1 [roscovitine]
Cell cycle
  cell cycle arrest: cell cycle arrest at the G1 phase

## CCCC(=O)[O-].[Na+] [sodium butyrate]
Cdc 2
  expression of late G1 phase genes such as cdc 2: inhibits

## C=CC[C@@H]1/C=C(\C)C[C@H](C)C[C@H](OC)[C@H]2O[C@@](O)(C(=O)C(=O)N3CCCC[C@H]3C(=O)O[C@H](/C(C)=C/[C@@H]3CC[C@@H](O)[C@H](OC)C3)[C@H](C)[C@@H](O)CC1=O)[C@H](C)C[C@@H]2OC [tacrolimus]
PC12 cells
  neurite outgrowth: little effect
